Results from patent publication US9232792B2, “Method for promoting plant growth” (SUMITOMO CHEMICAL COMPANY, LIMITED, priority 2011, dated 2016).

Test system: Corn (cultivar: Kuromochi)
Assay: Test Example 5: reduction of low-temperature stress by treatment of corn seeds
Assay type: in vivo
Details: 2.5±1° C. for 4 days, then 4 days at 27° C.
Method: Corn (cultivar: Kuromochi) A blank slurry solution containing 10% (V/V) color coat red (Becker Underwood, Inc.), 10% (V/V) CF-Clear (Becker Underwood, Inc.) and 1.66% Maxim 4FS (Syngenta) was prepared. A slurry solution was prepared by dissolving the present compound 1 in the blank slurry solution such that 0.5 g, 5 g or 50 g of the compound is applied to each 100 kg of corn seeds. In a 50-ml centrifuge tube (manufactured by BD Japan), 0.35 ml of the slurry solution was placed for each 14.4 g of corn seeds and stirred until the solution was dried, thereby coating the seeds. In addition, seeds were coated with the blank slurry solution and used as seeds for a non-treated group. One of the treated corn seeds was sown in culture soil (AISAI) in each pot (55 mm in diameter×58 mm in height) and cultivated for 10 days under the conditions of a temperature of 27° C., an illuminance of 5,000 lux, and a day length of 16 hours. The grown seedlings were used for the test. The pots at 10 days after the sowing were placed into an artificial weather control room (VHT-2-[…]-NC2-S, manufactured by Nippon Medical & Chemical Instruments Co., Ltd) and cultivated for 4 days under the following conditions: -temperature: 2.5±1° C., day length: 16 hours, and illuminance: 5,000 lux. After the low-temperature stress treatment, the plants were cultivated for 4 days under the conditions of a temperature of 27° C., an illuminance of 5,000 lux, and a day length of 16 hours. Then, the fresh weight of the overground part of the plants was measured. The experiment was performed in four replications for each treatment condition and the average weight per individual was calculated. As a result, the fresh weight of the overground part of plants in the treated group of applying 0.5 g, 5 g or 50 g of the present compound 1 to each 100 kg of seeds was much heavier than that in the non-treated group.

Measured: fresh weight of the overground part of plants vs non-treated group

O=C(O)c1cc2cc(C(F)(F)F)ccc2s1 [The present compound 1, 5-(trifluoromethyl)benzo[b]thiophene-2-carboxylic acid]
much heavier: seed treatment 0.5 g per 100 kg of seeds | seed treatment 5 g per 100 kg of seeds | seed treatment 50 g per 100 kg of seeds
